In patent US20050197350A1, “Novel quinoline, tetrahydroquinazoline, and pyrimidine derivatives and methods of treatment related to the use thereof” (TAISHO PHARMACEUTICAL CO., LTD., priority 2003, published 2005):

System: MCH receptors
Experiment: MCH receptor activity class (method not given)
Conditions: class by percent of control at 10^−7 M or IC50

| SMILES | class |
| --- | --- |
| COc1ccc([C@H](C)NC(=O)[C@H]2CC[C@@H](Nc3nc(C)cc(N(C)C)n3)CC2)cc1 [compound 2802, cis-4-{[4-(dimethylamino)-6-methylpyrimidin-2-yl]amino}-N-[(1S)-1-(4-methoxyphenyl)ethyl]cyclohexanecarboxamide] | 1 (Class 1: The value of percent of control at 10^−7 M was less than 40% or the value of IC50 was less than 50 nM.) |
| COc1cccc([C@H](C)NC(=O)[C@H]2CC[C@@H](Nc3nc(C)cc(N(C)C)n3)CC2)c1 [compound 2803, cis-4-{[4-(dimethylamino)-6-methylpyrimidin-2-yl]amino}-N-[(1S)-1-(3-methoxyphenyl)ethyl]cyclohexanecarboxamide] | 2 (Class 2: The value of percent of control at 10^−7 M was from 40% to 60% or the value of IC′50 was from 50 nM to 200 nM.) |
| Cc1cc(N(C)C)nc(N[C@H]2CC[C@@H](C(=O)N[C@H](C)c3ccc(F)cc3)CC2)n1 [compound 2804] | 2 (Class 2: The value of percent of control at 10^−7 M was from 40% to 60% or the value of IC′50 was from 50 nM to 200 nM.) |
| Cc1cc(N(C)C)nc(N[C@H]2CC[C@@H](C(=O)N[C@H](C)c3ccc(Cl)cc3)CC2)n1 [compound 2805, cis-N-[(1R)-1-(4-chlorophenyl)ethyl]-4-{[4-(dimethylamino)-6-methylpyrimidin-2-yl]amino}cyclohexanecarboxamide] | 1 (Class 1: The value of percent of control at 10^−7 M was less than 40% or the value of IC50 was less than 50 nM.) |
| Cc1cc(N(C)C)nc(N[C@H]2CC[C@@H](C(=O)NCc3cccc(I)c3)CC2)n1 [compound 2806, cis-4-{[4-(dimethylamino)-6-methylpyrimidin-2-yl]amino}-N-(3-iodobenzyl)cyclohexanecarboxamide] | 1 (Class 1: The value of percent of control at 10^−7 M was less than 40% or the value of IC50 was less than 50 nM.) |
| Cc1cc(N(C)C)nc(N[C@H]2CC[C@@H](C(=O)NCc3ccc(Cl)cc3Cl)CC2)n1 [compound 2807, cis-N-(2,4-dichlorobenzyl)-4-{[4-(dimethylamino)-6-methylpyrimidin-2-yl]amino}cyclohexanecarboxamide] | 1 (Class 1: The value of percent of control at 10^−7 M was less than 40% or the value of IC50 was less than 50 nM.) |
| Cc1cc(N(C)C)nc(N[C@H]2CC[C@@H](C(=O)NCc3cc(Cl)ccc3Cl)CC2)n1 [compound 2808, cis-N-(2,5-dichlorobenzyl)-4-{[4-(dimethylamino)-6-methylpyrimidin-2-yl]amino}cyclohexanecarboxamide] | 1 (Class 1: The value of percent of control at 10^−7 M was less than 40% or the value of IC50 was less than 50 nM.) |
| Cc1ccc(CNC(=O)[C@H]2CC[C@@H](Nc3nc(C)cc(N(C)C)n3)CC2)cc1 [compound 2809, cis-4-{[4-(dimethylamino)-6-methylpyrimidin-2-yl]amino}-N-(4-methylbenzyl)cyclohexanecarboxamide] | 1 (Class 1: The value of percent of control at 10^−7 M was less than 40% or the value of IC50 was less than 50 nM.) |
| Cc1cc(N(C)C)nc(N[C@H]2CC[C@@H](C(=O)NCc3cc(Cl)cc(Cl)c3)CC2)n1 [compound 2810, cis-N-(3,5-dichlorobenzyl)-4-{[4-(dimethylamino)-6-methylpyrimidin-2-yl]amino}cyclohexanecarboxamide] | 1 (Class 1: The value of percent of control at 10^−7 M was less than 40% or the value of IC50 was less than 50 nM.) |
| COc1cc(CNC(=O)[C@H]2CC[C@@H](Nc3nc(C)cc(N(C)C)n3)CC2)cc(OC)c1 [compound 2811, cis-N-(3,5-dimethoxybenzyl)-4-{[4-(dimethylamino)-6-methylpyrimidin-2-yl]amino}cyclohexanecarboxamide] | 1 (Class 1: The value of percent of control at 10^−7 M was less than 40% or the value of IC50 was less than 50 nM.) |
